# Patent publication US5140011A, “Amino acid derivatives which have renin inhibiting activity” (Hoffmann-La Roche, Inc., priority 1989, dated 1992)
# Biological target: T1, human renin (Homo sapiens, UniProt P00797)
# T1 sequence (P00797 67-406): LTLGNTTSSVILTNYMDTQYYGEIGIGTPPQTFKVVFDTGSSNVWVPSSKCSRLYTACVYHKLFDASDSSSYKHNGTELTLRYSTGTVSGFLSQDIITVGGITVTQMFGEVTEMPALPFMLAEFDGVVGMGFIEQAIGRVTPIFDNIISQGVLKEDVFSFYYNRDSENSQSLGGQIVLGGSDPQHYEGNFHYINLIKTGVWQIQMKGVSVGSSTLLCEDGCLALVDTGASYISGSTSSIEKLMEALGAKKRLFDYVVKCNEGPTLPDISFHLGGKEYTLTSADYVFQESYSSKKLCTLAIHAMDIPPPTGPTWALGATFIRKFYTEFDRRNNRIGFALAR
# Experiment: In vitro test with pure human renin
# Assay type: biochemical
# Details: human tetradecapeptide renin substrate (hTD), pH 7.4, 3 hours at 37° C. vs 4° C., angiotensin I measured via RIA
# Experimental: In vitro test with pure human renin
# The test is carried out in Eppendorf test tubes. The incubation mixture consists of (1) 100 μl of human renin in buffer A (0.1M sodium phosphate solution, pH 7.4, containing 0.1% bovine serum albumin, 0.1% sodium azide and 1 mM ethylenediaminetetraacetic acid), sufficient for a renin activity of 2-3 ng of angiotensin I/ml/hr.; (2) 145 μl of buffer A; (3) 30 μl of a 10 μM human tetradecapeptide renin substrate (hTD) in 10 mM hydrochloric acid; (4) 15 μl of dimethyl sulphoxide with or without inhibitor and (5) 10 μl of a 0.03 molar solution of hydroxyquinoline sulphate in water.
# The samples are incubated for 3 hours at 37° C. or 4° C. in triplicate. 2×100 μl samples per experimental test tube are used in order to measure the production of angiotensin I via RIA (standard radioimmunoassay; clinical assay solid phase kit). Cross reactivities of the antibody used in the RIA are: angiotensin I 100%; angiotensin II 0.0013%; hTD (angiotensin I-Val-Ile-His-Ser-OH) 0.09%. The production of angiotensin I is determined by the difference between the experiment at 37° C. and that at 4° C.
# The following controls are carried out:
# (a) Incubation of hTD samples without renin and without inhibitor at 37° C. and 4° C. The difference between these two values gives the base value of angiotensin I production.
# (b) Incubation of hTD samples with renin, but without inhibitor at 37° C. and 4° C. The difference between these values give the maximal value of angiotensin I production.
# In each sample the base value of the angiotensin I production is subtracted from the angiotensin I production which is determined. The difference between the maximal value and the base value gives the value of the maximal substrate hydrolysis (=100%) by renin.
# The results are given as IC50 values which denote that concentration of the inhibitor at which the enzymatic activity is inhibited by 50%. The IC50 values are determined from a linear regression curve from a logit-log plot.
row,Compound,IC50
1,"CC(C)[C@@H](CCOC(=O)C(C)(C)C)C[C@H](O)[C@H](CC1CCCCC1)NC(=O)C(Cc1c[nH]cn1)NC(=O)[C@H](Cc1ccccc1)NC(=O)[C@H]1CCCN1C(=O)OC(C)(C)C (mixture of isomers) [F, t-butyl (R)-2-[[(S)-α-[[(R and S)-1-[[(1S,2S,4S)-1-(cyclohexylmethyl]-2-hydroxy-4-isopropyl-6-(pivaloyloxy)hexyl]carbamoyl]-2-imidazol-4-ylethyl]carbamoyl]phenethyl]carbamoyl]-1-pyrrolidinecarboxylate]",10 nM
2,"CC(C)C(CC(O)C(CC1CCCCC1)NC(=O)C(Cc1c[nH]cn1)NC(=O)C(Cc1ccccc1)NC(=O)C1CCCN1C(=O)OC(C)(C)C)C(O)CNCc1ccccn1 (racemic) [I, (2RS,3S,5S,6S)-6-(Boc-D-Pro-Phe-His-NH)-7-cyclohexyl-3-isopropyl-1-[(2-pyridylmethyl)amino]-2,5-heptanediol]",8 nM
3,"CC(C)C(CC(O)C(CC1CCCCC1)NC(=O)C(Cc1c[nH]cn1)NC(=O)C(Cc1ccccc1)NC(=O)C1CCCN1C(=O)OC(C)(C)C)C(O)CNCCc1ccccc1 (single isomer, unassigned) [G, (2S or R,3S,5S,6S)-6-(Boc-D-Pro-Phe-His-NH)-7-cyclohexyl-3-isopropyl-1-(phenethylamino)-2,5-heptanediol]",11 nM
4,"CC(C)C(CC(O)C(CC1CCCCC1)NC(=O)C(Cc1c[nH]cn1)NC(=O)C(Cc1ccccc1)NC(=O)C1CCCN1C(=O)OC(C)(C)C)C(O)CNCCc1ccccc1 (single isomer, unassigned) [H, (2R or S,3S,5S,6S)-6-(Boc-D-Pro-Phe-His-NH)-7-cyclohexyl-3-isopropyl-1-(phenethylamino)-2,5-heptanediol]",4 nM

# Results, then the compound that gave them:
row,IC50,Compound
1,3 nM,"CCCCNC(=O)C[C@@H](C[C@H](O)[C@H](CC1CCCCC1)NC(=O)[C@H](Cc1c[nH]cn1)NC(=O)[C@@H](CC(=O)C(C)(C)C)Cc1ccccc1)C(C)C [A, (S)-N-[(1S,2S,4R)-4-[(Butylcarbamoyl)methyl]-1-(cyclohexylmethyl)-2-hydroxy-5-methylhexyl]-α-[(R)-α-(3,3-dimethyl-2-oxobutyl)hydrocinnamamido]imidazole-4-propionamide]"
2,9 nM,"CCCCNC(=O)C[C@@H](C[C@H](O)[C@H](CC1CCCCC1)NC(=O)[C@H](Cc1c[nH]cn1)NC(=O)[C@H](Cc1ccccc1)NC(=O)OC(C)(C)C)C(C)C [B, t-butyl [(S)-α-[[(S)-1-[[(1S,2S,4R)-4-[(butylcarbamoyl)methyl]-1-(cyclohexylmethyl)-2-hydroxy-5-methylhexyl]carbamoyl]-2-imidazol-4-ylethyl]carbamoyl]phenethyl]carbamate]"
3,7 nM,"CCCCCC(=O)[C@@H](C[C@H](O)[C@H](CC1CCCCC1)NC(=O)[C@H](Cc1c[nH]cn1)NC(=O)[C@@H](CC(=O)C(C)(C)C)Cc1ccccc1)C(C)C [C, (S)-N-[(1S,2S,4S)-1-(cyclohexylmethyl)-2-hydroxy-4-isopropyl-5-oxodecyl]-α-[(R)-α-(3,3-dimethyl-2-oxobutyl]hydrocinnamamido]imidazole-4-propionamide]"
4,13 nM,"CC(C)[C@@H](/C=C/C(=O)NCc1ccccn1)C[C@H](O)[C@H](CC1CCCCC1)NC(=O)[C@H](Cc1c[nH]cn1)NC(=O)[C@@H](CC(=O)C(C)(C)C)Cc1ccccc1 [D, (S)-N-[(1S,2S,4S,E)-1-(cyclohexylmethyl)-2-hydroxy-4-isopropyl-6-[(2-pyridylmethyl)carbamoyl]-5-hexenyl]-α-[(R)-α-(3,3-dimethyl-2-oxobutyl)hydrocinnamamido]imidazole-4-propionamide]"
5,9 nM,"CCC(=O)OCC[C@@H](C[C@H](O)[C@H](CC1CCCCC1)NC(=O)[C@H](Cc1c[nH]cn1)NC(=O)[C@H](Cc1ccccc1)NC(=O)OC(C)(C)C)C(C)C [E, t-butyl [(S)-α-[[(S)-1-[[(1S,2S,4S)-1-(cyclohexylmethyl)-2-hydroxy-4-isopropyl-6-(propionyloxy)hexyl]carbamoyl]-2-imidazol-4-ylethyl]carbamoyl]phenethyl]carbamate]"
